Data on three compounds can be found in ChEMBL document CHEMBL5649166, “RIP3 induces apoptosis independent of pronecrotic kinase activity” (Mol Cell, 2014).

For assay [1], the target named is T1, Ephrin type-A receptor 1 (Homo sapiens) (UniProt P21709).
T1 sequence (whole entry): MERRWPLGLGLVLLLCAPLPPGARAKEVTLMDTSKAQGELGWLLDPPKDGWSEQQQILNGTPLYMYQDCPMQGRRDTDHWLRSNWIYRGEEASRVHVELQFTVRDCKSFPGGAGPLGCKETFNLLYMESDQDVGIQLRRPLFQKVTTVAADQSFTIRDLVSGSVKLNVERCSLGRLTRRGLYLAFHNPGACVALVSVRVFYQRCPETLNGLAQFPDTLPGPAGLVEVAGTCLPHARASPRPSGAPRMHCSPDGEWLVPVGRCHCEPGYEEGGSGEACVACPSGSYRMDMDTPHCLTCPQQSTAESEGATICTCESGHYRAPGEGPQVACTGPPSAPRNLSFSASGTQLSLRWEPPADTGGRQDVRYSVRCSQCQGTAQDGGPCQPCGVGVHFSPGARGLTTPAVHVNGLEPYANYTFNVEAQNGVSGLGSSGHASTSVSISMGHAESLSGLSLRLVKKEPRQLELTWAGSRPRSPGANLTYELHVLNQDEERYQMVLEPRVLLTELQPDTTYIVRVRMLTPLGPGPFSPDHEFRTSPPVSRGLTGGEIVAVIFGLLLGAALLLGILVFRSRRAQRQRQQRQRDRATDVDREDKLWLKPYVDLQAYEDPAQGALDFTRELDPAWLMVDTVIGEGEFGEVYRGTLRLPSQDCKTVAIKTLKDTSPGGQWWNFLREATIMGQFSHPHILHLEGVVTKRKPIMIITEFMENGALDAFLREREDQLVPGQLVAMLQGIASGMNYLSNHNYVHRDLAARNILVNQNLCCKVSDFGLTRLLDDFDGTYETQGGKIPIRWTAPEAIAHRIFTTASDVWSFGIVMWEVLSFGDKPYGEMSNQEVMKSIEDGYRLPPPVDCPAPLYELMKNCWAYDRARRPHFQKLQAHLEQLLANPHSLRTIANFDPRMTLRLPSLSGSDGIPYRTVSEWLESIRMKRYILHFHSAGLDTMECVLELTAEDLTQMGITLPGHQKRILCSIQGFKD
The assay can be described thus: Residual activity of human EPHA1 using poly[Glu:Tyr] (4:1) as substrate at 1 uM in presence of 32P-ATP by Hotspot assay relative to control.

Assay [2] has as its target Tyrosine-protein kinase Fgr (Homo sapiens) (UniProt P09769). The assay can be described thus: Inhibition of human FGR using poly[Glu:Tyr] (4:1) as substrate at 1 uM in presence of 32P-ATP by Hotspot assay relative to control; values are per cent of control.
The target of assay [3] is Receptor-type tyrosine-protein kinase FLT3 (Homo sapiens) (UniProt P36888). Put plainly: Inhibition of human FLT3 using EAIYAAPFAKKK as substrate at 1 uM in presence of 32P-ATP by Hotspot assay relative to control; values are per cent of control.
Sequence of Receptor-type tyrosine-protein kinase FLT3 (Homo sapiens) (P36888 whole entry): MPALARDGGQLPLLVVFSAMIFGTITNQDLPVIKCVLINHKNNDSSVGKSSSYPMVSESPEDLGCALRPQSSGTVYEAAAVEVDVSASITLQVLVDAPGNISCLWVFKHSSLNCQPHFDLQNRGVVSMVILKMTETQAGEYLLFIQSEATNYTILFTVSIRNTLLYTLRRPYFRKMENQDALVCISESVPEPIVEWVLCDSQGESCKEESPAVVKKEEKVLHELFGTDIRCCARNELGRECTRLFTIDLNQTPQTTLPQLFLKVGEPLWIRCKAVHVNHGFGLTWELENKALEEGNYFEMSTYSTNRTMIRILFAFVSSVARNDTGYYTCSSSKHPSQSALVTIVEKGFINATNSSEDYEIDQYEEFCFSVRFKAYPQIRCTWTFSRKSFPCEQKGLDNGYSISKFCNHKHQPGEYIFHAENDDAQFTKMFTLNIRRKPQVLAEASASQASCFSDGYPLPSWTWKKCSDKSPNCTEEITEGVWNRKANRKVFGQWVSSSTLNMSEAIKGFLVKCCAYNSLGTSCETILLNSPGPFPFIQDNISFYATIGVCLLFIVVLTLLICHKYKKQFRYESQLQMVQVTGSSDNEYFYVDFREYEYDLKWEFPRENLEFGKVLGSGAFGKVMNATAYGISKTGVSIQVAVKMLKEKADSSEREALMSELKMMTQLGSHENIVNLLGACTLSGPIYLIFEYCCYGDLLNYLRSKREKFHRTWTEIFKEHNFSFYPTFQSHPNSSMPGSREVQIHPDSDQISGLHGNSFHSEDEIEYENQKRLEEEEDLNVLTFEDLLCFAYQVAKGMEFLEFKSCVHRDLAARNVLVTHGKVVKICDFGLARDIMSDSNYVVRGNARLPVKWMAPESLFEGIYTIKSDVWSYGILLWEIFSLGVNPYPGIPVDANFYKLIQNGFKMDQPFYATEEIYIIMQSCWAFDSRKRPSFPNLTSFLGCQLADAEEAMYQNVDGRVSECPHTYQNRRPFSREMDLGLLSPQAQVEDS
Assay [4] addresses Dual specificity protein kinase CLK4 (Homo sapiens) (UniProt Q9HAZ1). The assay can be described thus: Inhibition of human CLK4 using myelin basic protein as substrate at 1 uM in presence of 32P-ATP by Hotspot assay relative to control; values are per cent of control.
Assay [5] addresses T2, Tyrosine-protein kinase Tec (Homo sapiens) (UniProt P42680).
T2 sequence (whole entry): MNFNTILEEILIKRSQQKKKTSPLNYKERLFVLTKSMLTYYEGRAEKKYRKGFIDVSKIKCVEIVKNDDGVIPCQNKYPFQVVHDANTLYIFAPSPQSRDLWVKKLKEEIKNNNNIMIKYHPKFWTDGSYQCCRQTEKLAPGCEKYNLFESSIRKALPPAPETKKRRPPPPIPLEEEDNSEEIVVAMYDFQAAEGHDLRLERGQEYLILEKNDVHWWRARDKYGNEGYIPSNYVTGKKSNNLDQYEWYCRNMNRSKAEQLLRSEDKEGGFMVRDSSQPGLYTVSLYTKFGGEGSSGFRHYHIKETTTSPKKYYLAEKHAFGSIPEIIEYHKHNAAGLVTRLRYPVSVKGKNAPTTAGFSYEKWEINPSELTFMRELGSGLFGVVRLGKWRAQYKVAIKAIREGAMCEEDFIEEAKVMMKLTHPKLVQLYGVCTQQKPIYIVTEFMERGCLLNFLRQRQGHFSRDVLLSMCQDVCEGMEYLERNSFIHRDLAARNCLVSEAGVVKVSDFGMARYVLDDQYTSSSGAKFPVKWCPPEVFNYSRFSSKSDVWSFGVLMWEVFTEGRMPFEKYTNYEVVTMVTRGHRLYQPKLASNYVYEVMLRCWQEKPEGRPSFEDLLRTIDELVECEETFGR
The assay can be described thus: Inhibition of human TEC using poly[Glu:Tyr] (4:1) as substrate at 1 uM in presence of 32P-ATP by Hotspot assay relative to control; values are per cent of control.

Assay [6] addresses Receptor tyrosine-protein kinase erbB-2 (Homo sapiens) (UniProt P04626). The assay can be described thus: Inhibition of human ERBB2/HER2 using poly[Glu:Tyr] (4:1) as substrate at 1 uM in presence of 32P-ATP by Hotspot assay relative to control; values are per cent of control.
For assay [7], the target named is Tyrosine-protein kinase Fyn (Homo sapiens) (UniProt P06241). Put plainly: Inhibition of human FYN using poly[Glu:Tyr] (4:1) as substrate at 1 uM in presence of 32P-ATP by Hotspot assay relative to control; values are per cent of control.
Sequence of Tyrosine-protein kinase Fyn (Homo sapiens) (P06241 2-537 limits assumed): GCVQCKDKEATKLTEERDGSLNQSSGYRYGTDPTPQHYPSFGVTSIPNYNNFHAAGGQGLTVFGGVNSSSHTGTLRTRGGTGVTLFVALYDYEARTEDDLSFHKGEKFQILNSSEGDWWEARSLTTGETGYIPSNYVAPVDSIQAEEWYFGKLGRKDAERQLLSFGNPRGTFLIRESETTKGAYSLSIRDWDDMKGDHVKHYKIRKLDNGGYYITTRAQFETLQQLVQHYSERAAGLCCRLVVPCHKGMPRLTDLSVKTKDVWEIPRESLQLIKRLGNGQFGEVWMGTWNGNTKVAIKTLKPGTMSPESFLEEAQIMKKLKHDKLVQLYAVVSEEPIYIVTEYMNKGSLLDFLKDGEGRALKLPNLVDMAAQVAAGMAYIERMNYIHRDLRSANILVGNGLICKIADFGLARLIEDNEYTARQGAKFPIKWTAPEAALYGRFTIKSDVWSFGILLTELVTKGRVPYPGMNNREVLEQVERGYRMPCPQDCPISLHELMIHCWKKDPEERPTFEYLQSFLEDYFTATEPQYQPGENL
Assay [8] deals with Serine/threonine-protein kinase PAK 2 (Homo sapiens) (UniProt Q13177). Put plainly: Inhibition of human PAK2 using RRRLSFAEPG as substrate at 1 uM in presence of 32P-ATP by Hotspot assay relative to control; values are per cent of control.
Sequence of Serine/threonine-protein kinase PAK 2 (Homo sapiens) (Q13177 whole entry): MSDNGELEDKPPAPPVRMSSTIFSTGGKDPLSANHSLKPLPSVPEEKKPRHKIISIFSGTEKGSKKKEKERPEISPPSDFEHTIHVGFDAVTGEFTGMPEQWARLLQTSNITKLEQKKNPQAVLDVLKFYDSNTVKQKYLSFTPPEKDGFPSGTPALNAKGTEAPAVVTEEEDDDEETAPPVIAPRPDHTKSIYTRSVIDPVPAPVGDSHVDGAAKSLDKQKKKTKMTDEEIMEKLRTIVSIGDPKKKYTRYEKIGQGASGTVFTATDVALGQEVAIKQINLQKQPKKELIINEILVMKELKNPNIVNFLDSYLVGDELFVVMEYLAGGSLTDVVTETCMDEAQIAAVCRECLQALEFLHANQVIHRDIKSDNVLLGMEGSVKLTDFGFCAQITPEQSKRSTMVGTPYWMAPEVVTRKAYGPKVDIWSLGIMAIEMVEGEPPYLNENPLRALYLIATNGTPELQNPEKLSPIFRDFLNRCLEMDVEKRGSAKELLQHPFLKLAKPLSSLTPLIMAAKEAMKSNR
The target in assay [9] is T3, Lymphokine-activated killer T-cell-originated protein kinase (Homo sapiens) (UniProt Q96KB5).
T3 sequence (whole entry): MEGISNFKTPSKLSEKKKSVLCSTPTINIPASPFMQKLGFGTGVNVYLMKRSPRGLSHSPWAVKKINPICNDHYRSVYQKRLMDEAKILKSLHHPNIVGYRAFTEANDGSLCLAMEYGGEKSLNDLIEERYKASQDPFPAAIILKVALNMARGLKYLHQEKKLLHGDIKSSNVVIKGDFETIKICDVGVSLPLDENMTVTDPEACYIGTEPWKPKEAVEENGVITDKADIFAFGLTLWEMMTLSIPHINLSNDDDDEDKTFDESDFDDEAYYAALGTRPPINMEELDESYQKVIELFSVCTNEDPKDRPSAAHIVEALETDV
The assay can be described thus: Inhibition of human PBK/TOPK using myelin basic protein as substrate at 1 uM in presence of 32P-ATP by Hotspot assay relative to control; values are per cent of control.

SMILES strings stand for the structures.

Sequence of Dual specificity protein kinase CLK4 (Homo sapiens) (Q9HAZ1 whole entry, looked up): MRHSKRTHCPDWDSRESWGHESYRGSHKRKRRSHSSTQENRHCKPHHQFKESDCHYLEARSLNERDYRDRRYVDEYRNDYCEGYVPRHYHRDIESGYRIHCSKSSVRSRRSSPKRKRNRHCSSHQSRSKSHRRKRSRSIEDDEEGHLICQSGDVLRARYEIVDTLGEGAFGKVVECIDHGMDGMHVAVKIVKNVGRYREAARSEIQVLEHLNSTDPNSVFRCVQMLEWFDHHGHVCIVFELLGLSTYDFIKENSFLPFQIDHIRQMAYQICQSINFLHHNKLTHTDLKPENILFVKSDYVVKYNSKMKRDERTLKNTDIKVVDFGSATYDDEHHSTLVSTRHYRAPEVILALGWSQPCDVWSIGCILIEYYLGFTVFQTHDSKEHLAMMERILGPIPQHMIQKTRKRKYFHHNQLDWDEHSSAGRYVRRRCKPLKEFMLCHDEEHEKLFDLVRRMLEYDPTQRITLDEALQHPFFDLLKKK
Sequence of Tyrosine-protein kinase Fgr (Homo sapiens) (P09769 2-529 limits assumed): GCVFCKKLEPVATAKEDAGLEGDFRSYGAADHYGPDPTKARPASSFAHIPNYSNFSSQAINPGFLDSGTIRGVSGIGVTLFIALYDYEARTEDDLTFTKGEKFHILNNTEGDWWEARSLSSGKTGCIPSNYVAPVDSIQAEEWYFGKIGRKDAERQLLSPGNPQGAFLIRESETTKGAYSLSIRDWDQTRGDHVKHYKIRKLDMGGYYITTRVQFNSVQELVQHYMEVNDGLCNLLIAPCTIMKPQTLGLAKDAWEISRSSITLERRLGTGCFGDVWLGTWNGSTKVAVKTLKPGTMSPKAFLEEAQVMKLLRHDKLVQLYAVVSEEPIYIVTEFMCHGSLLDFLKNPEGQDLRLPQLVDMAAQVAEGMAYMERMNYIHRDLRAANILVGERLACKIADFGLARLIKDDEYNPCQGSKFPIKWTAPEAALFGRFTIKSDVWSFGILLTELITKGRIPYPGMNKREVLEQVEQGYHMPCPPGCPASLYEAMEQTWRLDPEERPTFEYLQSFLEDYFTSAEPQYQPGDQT
Sequence of Receptor tyrosine-protein kinase erbB-2 (Homo sapiens) (P04626 whole entry): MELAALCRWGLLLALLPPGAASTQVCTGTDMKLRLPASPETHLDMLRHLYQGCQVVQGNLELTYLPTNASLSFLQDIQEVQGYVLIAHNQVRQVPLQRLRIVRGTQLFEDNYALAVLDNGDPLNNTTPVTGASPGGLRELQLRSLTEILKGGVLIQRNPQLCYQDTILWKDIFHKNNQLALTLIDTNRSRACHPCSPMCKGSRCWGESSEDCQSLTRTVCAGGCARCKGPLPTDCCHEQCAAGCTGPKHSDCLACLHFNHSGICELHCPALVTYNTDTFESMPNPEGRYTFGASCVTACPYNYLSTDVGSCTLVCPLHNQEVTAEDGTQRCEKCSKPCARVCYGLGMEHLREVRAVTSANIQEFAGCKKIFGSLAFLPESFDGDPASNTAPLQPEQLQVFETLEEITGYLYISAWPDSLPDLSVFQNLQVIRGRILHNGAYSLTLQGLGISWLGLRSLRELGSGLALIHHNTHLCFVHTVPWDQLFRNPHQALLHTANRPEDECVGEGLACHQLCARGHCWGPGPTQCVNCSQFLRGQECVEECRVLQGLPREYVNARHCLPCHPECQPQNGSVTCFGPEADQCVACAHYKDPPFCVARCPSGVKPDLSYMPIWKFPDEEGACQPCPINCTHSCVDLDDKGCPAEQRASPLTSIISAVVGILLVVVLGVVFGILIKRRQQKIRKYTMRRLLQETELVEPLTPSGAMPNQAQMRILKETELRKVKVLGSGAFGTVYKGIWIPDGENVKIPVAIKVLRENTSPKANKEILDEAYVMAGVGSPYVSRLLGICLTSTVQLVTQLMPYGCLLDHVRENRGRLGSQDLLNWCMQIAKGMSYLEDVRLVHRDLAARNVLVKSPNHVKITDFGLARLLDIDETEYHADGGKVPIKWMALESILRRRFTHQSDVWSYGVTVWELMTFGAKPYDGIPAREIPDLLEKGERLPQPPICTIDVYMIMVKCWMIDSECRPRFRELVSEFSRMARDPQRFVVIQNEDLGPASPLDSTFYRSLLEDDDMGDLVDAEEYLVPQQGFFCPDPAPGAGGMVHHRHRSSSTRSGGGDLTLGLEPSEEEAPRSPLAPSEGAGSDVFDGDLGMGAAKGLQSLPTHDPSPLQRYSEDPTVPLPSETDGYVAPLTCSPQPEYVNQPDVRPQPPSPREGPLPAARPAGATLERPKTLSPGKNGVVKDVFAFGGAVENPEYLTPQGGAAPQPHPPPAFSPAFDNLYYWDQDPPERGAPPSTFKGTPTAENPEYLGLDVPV

On to `Cc1cc(-c2cnc(N)c3c(-c4ccc5scnc5c4)csc23)n(C)n1`, for which the residual activity in assay [1] amounted to 56.5%; in [2], 22.2%; in assay [3] it was 48%; in assay [4], 84.6%; in assay [5], 89.7%; in [6] it was 92.3%. For the same compound, the values for the residual activity in assay [7], in [8] and in assay [9] were 5.73%, 96.2% and 100%, respectively.

For `CC(C)S(=O)(=O)c1ccc2nccc(Nc3ccc4scnc4c3)c2c1`, the residual activity stood at 53.9% in assay [1]; 28.5% in assay [2]; 87.9% in [3]; 92.2% in [4]; 99.8% in assay [5]; 85% in assay [6]. The residual activity in [7] was 18%; in [8] it was 101%; in [9] it was 105%.

In the case of `CNC(=O)c1ccc2c(c1)ncn2-c1ccc(CC(=O)OC(C)(C)C)cc1`, the residual activity in assay [1] amounted to 84.8%; in assay [2] it was 37.6%; in assay [3], 16%; in [4], 93.8%; in assay [5] it was 93.1%; in assay [6], 100%. In addition, the residual activity in assay [7] stood at 79.4%; in [8] it was 91%; in [9] it was 102%.
